Measurements as given in patent publication US20220184220A1, “XYLOGLUCAN-CONTAINING PRODRUGS AND METHODS OF MANUFACTURE AND USE THEREOF” (priority 2019, published 2022).
Entries after “also recorded” stand apart in the source; their conditions may differ.

Columns and labels:
[1] = biological target: Bacteroides ovatus GH5 endo-xyloglucanase (Bacteroides ovatus, UniProt A7LXT7); assay: Hydrolysis of glyco-caged prodrugs by BoGH5A, copper-bicinchoninic acid (BCA) reducing-sugar assay; format: biochemical; settings: sodium citrate buffer, pH 6.5
Chain of Bacteroides ovatus GH5 endo-xyloglucanase (A7LXT7 33-502): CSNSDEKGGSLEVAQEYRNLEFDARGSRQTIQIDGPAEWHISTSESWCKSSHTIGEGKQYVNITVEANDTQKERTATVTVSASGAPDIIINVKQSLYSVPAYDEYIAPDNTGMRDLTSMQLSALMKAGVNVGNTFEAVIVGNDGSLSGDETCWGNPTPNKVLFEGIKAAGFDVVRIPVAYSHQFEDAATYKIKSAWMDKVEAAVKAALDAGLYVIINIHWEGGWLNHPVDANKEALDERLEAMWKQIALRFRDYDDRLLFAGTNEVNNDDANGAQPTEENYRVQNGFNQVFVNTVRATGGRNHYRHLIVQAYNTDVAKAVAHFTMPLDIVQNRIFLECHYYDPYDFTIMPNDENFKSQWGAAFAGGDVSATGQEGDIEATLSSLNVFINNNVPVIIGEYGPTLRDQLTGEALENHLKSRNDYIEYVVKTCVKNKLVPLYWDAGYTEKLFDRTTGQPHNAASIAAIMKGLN
Text: DOI:10.1007/978-1-4939-6899-2 1.

[2] = tested on: acute self-limiting colitis in mice; assay: Gross visual observations of the murine abdomen (Example 3); format: in vivo; settings: necropsy after 3 days of steroid gavage
Text: Under isoflurane anesthesia, mice were terminally bled by cardiac puncture and then humanely euthanized by cervical dislocation. All collected blood was separated into serum that was dedicated for steroid detection and optimization of steroid detection procedures. Following euthanasia, a midline laparotomy was made and gross observations of the abdominal regions were photo-documented. Approximately 1 cm sections of the cecum, and the most proximal and distal portions of the colon were divided for histological examination. Cecal and colonic tissues were flash frozen in liquid nitrogen for future immunological protein quantification. Digesta extracted from the colon was stored at −80° C. for future steroid detection, and fresh feces from the cages were used to enumerate Bacteroides ovatus and Citrobacter rodentium by microbiological techniques on the same day as the necropsy.

[3] = tested on: interleukin-12p70 (IL-12p70); assay: Protein markers of inflammation in colonic tissue (Example 7); format: in vivo; settings: infected female mice; compared to uncaged PRED or DEXA
Description: (§1) Approval to conduct this project was obtained from the AAFC LeRDC Animal Care Committee (Animal Use Protocol 1911). […] The methods employed were essentially the same as those described in Example 3, except that the Citrobacter rodentium (CR) was administered to incite acute self-limiting colitis in mice prior to colonization with Bacteroides ovatus (BO). […] FIG. 20 provides a schematic illustrating the study design and timelines.
(§2) As in the study described in Example 3, there were gross histopathological differences in the distal colon tissue obtained from mice in the different treatment groups. Histological scoring of inflammation was performed by a board-certified pathologist blinded to treatment. […] Following CR infection, with no treatment, neutrophil infiltration was evident and the histological score was 10. […] Evidence of enhanced amelioration of protein markers of inflammation were also observed. […] IL-12p70 is a pro-inflammatory cytokine involved in cell-mediated immunity. For example, it is known as a T cell-stimulating factor, which can stimulate the growth and function of T cells. Moreover, it stimulates the production of interferon-gamma (IFN-γ) and tumor necrosis factor-alpha (TNF-α) from T cells and natural killer (NK) cells, and reduces IL-4 mediated suppression of IFN-γ.

[4] = tested on: acute self-limiting colitis in mice; assay: Histological scoring of inflammation, C. rodentium colitis in mice with normal enteric microbiota (Example 7); format: in vivo; settings: for histological score, distal colon: CR+/BO+ mice, prednisolone forms 1 mg/kg, dexamethasone forms 1.5 mg/kg (equivalent), one day following steroid treatment; for efficacy compared with the uncaged drug, histologically: Example 7 conclusions; for colitis in the colon, histopathologically: colitis incited by Citrobacter rodentium, mice colonized by Bacteroides ovatus
Description: as §1, §2

[5] = tested on: acute self-limiting colitis in mice; assay: Histological scoring of inflammation, C. rodentium colitis in germ-free mice colonized with B. ovatus (Example 3); format: in vivo; settings: for Crypt Height / Epithelia Hyperplasia / Epithelial Injury / Fibrosis / Globlet cell / Inflamm / Mitotic Act.: gavage 3 days, prednisolone forms 1 mg/kg/day, dexamethasone forms 0.6 mg/kg/day; for Crypt Height / Epithelia Hyperplasia / Epithelial Injury / Fibrosis / Globlet cell / Inflamm / Mitotic Act. / Total Score: n=2; for Total Score: sum of each scoring category; for acute inflammation in the proximal and distal colon, histopathologically / efficacy compared with the uncaged drug: gnotobiotic mice colonized by B. ovatus; for efficacy compared with the uncaged drug: Example 3 conclusions
[6] = tested on: IL-1β, IL-6, IL-22, TNF-α; assay: Tissue cytokine detection by ELISA in cecal and colonic homogenates (Example 3); format: in vivo, mice; settings: for decreasing pro-inflammatory cytokines (IL-1β and TNF-α) and increasing IL-22 in intestinal tissues: compared with uncaged drugs
Description: Cecal and colonic homogenate for each mouse was prepared using the tissues suspended in an immunoprecipitation buffer at a ratio of 1:5 (wt/vol, adapted from Burgos-Ramos E. et al. 2012. “Adipose tissue promotes a serum cytokine profile related to lower insulin sensitivity after chronic central leptin infusion”. PLoS One Vol 7(10): e46893) with the addition of 1% Protease Inhibitor Cocktail (Sigma Aldrich). Frozen tissue sections were immediately homogenized using a Tissue-Tearor® model 398 homogenizer (Biospec Products) and centrifuged (14 000×g for 30 min at 4° C.). Supernatants were collected and used immediately for cytokine profiling. Cecal and colonic cytokine concentrations were measured for each treatment group by enzyme-linked immunosorbent assay (ELISA). Cytokines included in the analysis were interleukin-1 beta (IL-1β); IL-6; IL-10; IL-22; and tumour necrosis factor alpha (TNF-α). All cytokines were quantified using mouse DuoSet ELISA Development kits according to the manufacturer's protocols (R&D Systems). ELISAs were performed using 96-well high-binding half area microplates (Greiner Bio-One), and the optical density of the reactions were determined at wavelength of 450 nm on a Synergy HT™ multi-detection microplate reader (BioTek Instruments Inc.) with Gen5™ analysis software (BioTek Instruments Inc.).

[7] = cecal tissue homogenates, compared to the free steroids, n=2

SMILES	hydrolysis of the prodrug (release of the active drug) [1]	histological score, distal colon [4]	Crypt Height ([5]; cecal tissue)	Epithelia Hyperplasia ([5]; cecal tissue)	Epithelial Injury ([5]; cecal tissue)	Fibrosis ([5]; cecal tissue)	Globlet cell ([5]; cecal tissue)	Inflamm ([5]; cecal tissue)	Mitotic Act. ([5]; cecal tissue)	Total Score ([5]; cecal tissue)	Crypt Height ([5]; distal colon)	Epithelia Hyperplasia ([5]; distal colon)	Epithelial Injury ([5]; distal colon)	Fibrosis ([5]; distal colon)	Globlet cell ([5]; distal colon)	Inflamm ([5]; distal colon)	Mitotic Act. ([5]; distal colon)	Total Score ([5]; distal colon)	Crypt Height ([5]; proximal colon)	Epithelia Hyperplasia ([5]; proximal colon)	other results
COC(=O)c1cc(N)ccc1O[C@@H]1OC(CO)[C@@H](O[C@@H]2OC(CO[C@H]3OC[C@@H](O)C(O)C3O)[C@@H](O[C@@H]3OC(CO[C@H]4OC[C@@H](O)C(O)C4O)[C@@H](O[C@@H]4OC(CO[C@H]5OC[C@@H](O)C(O)C5O)[C@@H](O)C(O)C4O)C(O)C3O)C(O)C2O)C(O)C1O (stereo partly drawn) [XXXG-5ASAME, XXXG-β-O-mesalazineME]	demonstrated	–	–	–	–	–	–	–	–	–	–	–	–	–	–	–	–	–	–	–	–
C[C@@H]1C[C@H]2[C@@H]3CCC4=CC(=O)C=C[C@]4(C)[C@@]3(F)[C@@H](O)C[C@]2(C)[C@@]1(O)C(=O)CO[C@@H]1OC(CO)[C@@H](O[C@@H]2OC(CO[C@H]3OC[C@@H](O)C(O)C3O)[C@@H](O[C@@H]3OC(CO[C@H]4OC[C@@H](O)C(O)C4O)[C@@H](O[C@@H]4OC(CO[C@H]5OC[C@@H](O)C(O)C5O)[C@@H](O)C(O)C4O)C(O)C3O)C(O)C2O)C(O)C1O (stereo partly drawn) [XXXG-DEXA, XXXG-β-O-dexamethasone]	demonstrated	2	1	1	1	1.5	0.5	2	1.5	8.5	1.5	1.5	1	0	0	1	1	6	2	1.5	cecal and colonic thickening (gross observation) [2]: less cecal and colonic thickening than uncaged dexamethasone; quantities of interleukin-12p70 (IL-12p70) protein in colonic tissue [3]: significantly lower; efficacy compared with the uncaged drug, histologically [4]: greater efficacy than uncaged dexamethasone histologically; colitis in the colon, histopathologically [4]: ameliorate colitis; amelioration of colitis in the cecum and proximal colon, caged drugs compared ([5]; colitis incited by Citrobacter rodentium): more effective than XXXG-PRED; caged drugs compared in the distal colon ([5]; distal colon): equal scores; acute inflammation in the proximal and distal colon, histopathologically [5]: ameliorate acute inflammation; efficacy compared with the uncaged drug [5]: greater efficacy than uncaged dexamethasone; injury and inflammation intensities, distal colon ([5]; histologic examination): lessened the injury and inflammation intensities; injury and inflammation intensity, ceca and proximal colon tissues ([5]; histologic examination): less injury and inflammation intensity than the other treatments; Epithelial Injury ([5]; proximal colon): 2; Fibrosis ([5]; proximal colon): 0; Globlet cell ([5]; proximal colon): 0; Inflamm ([5]; proximal colon): 1; Mitotic Act. ([5]; proximal colon): 1.5; Total Score ([5]; proximal colon): 8; IL-1β concentration in cecal tissue [6, 7]: decreased; TNF-α concentration in cecal tissue [6, 7]: decreased; decrease of IL-6 concentration in cecal tissue [6, 7]: more effective than XXXG-PRED; decreasing pro-inflammatory cytokines (IL-1β and TNF-α) and increasing IL-22 in intestinal tissues [6]: more effective than the uncaged drugs
C[C@]12C=CC(=O)C=C1CC[C@@H]1[C@@H]2[C@@H](O)C[C@@]2(C)[C@H]1CC[C@]2(O)C(=O)CO[C@@H]1OC(CO)[C@@H](O[C@@H]2OC(CO[C@H]3OC[C@@H](O)C(O)C3O)[C@@H](O[C@@H]3OC(CO[C@H]4OC[C@@H](O)C(O)C4O)[C@@H](O[C@@H]4OC(CO[C@H]5OC[C@@H](O)C(O)C5O)[C@@H](O)C(O)C4O)C(O)C3O)C(O)C2O)C(O)C1O (stereo partly drawn) [XXXG-PRED, XXXG-β-O-prednisolone]	demonstrated	4	2	2	1.5	0.5	0	2.5	1.5	10	1.5	1.5	1	0	0.5	1	1	6.5	2	3	blood present in ceca (gross observation) [2]: more blood present in ceca than dexamethasone treatment; also recorded: more blood in cecal area; quantities of interleukin-12p70 (IL-12p70) protein in colonic tissue [3]: significantly lower; efficacy compared with the uncaged drug, histologically [4]: greater efficacy than uncaged prednisolone histologically; colitis in the colon, histopathologically [4]: ameliorate colitis; caged drugs compared in the distal colon ([5]; distal colon): equal scores; acute inflammation in the proximal and distal colon, histopathologically [5]: ameliorate acute inflammation; efficacy compared with the uncaged drug [5]: greater efficacy than uncaged prednisolone; injury and inflammation intensities, distal colon ([5]; histologic examination): lessened the injury and inflammation intensities; Epithelial Injury ([5]; proximal colon): 2.5; Fibrosis ([5]; proximal colon): 0; Globlet cell ([5]; proximal colon): 0.5; Inflamm ([5]; proximal colon): 2; Mitotic Act. ([5]; proximal colon): 1.5; Total Score ([5]; proximal colon): 11.5; IL-1β concentration in cecal tissue [6, 7]: decreased; TNF-α concentration in cecal tissue [6, 7]: decreased; IL-22 concentration in cecal tissue ([6]; cecal tissue homogenates, n=2): increased; decreasing pro-inflammatory cytokines (IL-1β and TNF-α) and increasing IL-22 in intestinal tissues [6]: more effective than the uncaged drugs
C[C@@H]1C[C@H]2[C@@H]3CCC4=CC(=O)C=C[C@]4(C)[C@@]3(F)[C@@H](O)C[C@]2(C)[C@@]1(O)C(=O)CO [dexamethasone, reference compound]	–	17	1	1	0.5	0	0	2	1.5	6	2	1.5	1	1	1.5	1.5	1	9.5	3	3	Epithelial Injury ([5]; proximal colon): 2; Fibrosis ([5]; proximal colon): 0; Globlet cell ([5]; proximal colon): 0; Inflamm ([5]; proximal colon): 1.5; Mitotic Act. ([5]; proximal colon): 1.5; Total Score ([5]; proximal colon): 11
